We go through ten compounds from PMC7221740, “Cyclic Synthetic Peroxides Inhibit Growth of Entomopathogenic Fungus Ascosphaera apis without Toxic Effect on Bumblebees” (Molecules, 2020).

Converted amounts (≈) assume the structure as drawn.

In data set [1] the test system is A. apis. Also on record: method as in PMID 30862950. The settings on record: ref [54]; cited from earlier work.
Data set [2] has as its system Ascosphaera apis. Description: Inhibition of radial growth of Ascosphaera apis mycelium in potato-saccharose agar. It counts as cell-based. The settings on record: 72 h; for inhibition at 30 µg/mL / EC50: Ascosphaera apis; for inhibition at 30 µg/mL / Mycelium Growth Inhibition (I), %: A. apis, concentration 30 mg/L, potato-saccharose agar, 25 °C; for inhibition at 30 µg/mL: read-out: Mycelium Growth Inhibition (I), %; for EC50: A. apis mycelium growth, read-out: EC50 (mg/L) ± SD, fungicidal activity.

For data set [3], the system named is A. apis. Also on record: method as in PMID 22263693. The settings on record: ref [55]; read-out: IC50 against A. apis; cited from earlier work.
Data set [4] deals with bumblebees Bombus terrestris L. Description: Toxic effect on bumblebees (feeding with inverted sugar syrup). The settings on record: concentration not given. It counts as in vivo. As to the method:
In the next step, we evaluated the toxicity of active peroxides 1–4, 6 towards bumblebees. Two approaches were used for this purpose. The first approach was a contact action of bumblebees with 30 mg/L solution of peroxide in water containing DMSO (5% vol.). The second approach was feeding of bumblebees with inverted sugar syrup containing peroxides 1–4, 6 (the concentration of peroxide was 30 mg/L) and DMSO (5% vol.). The mortality of bumblebees after their contact with solutions of peroxides 1–4, 6 was absent. […] However, after the consumption of sugar syrup containing difenoconazole or penconazole, the ability of bumblebees to fly was decreased by 1.4 times and 1.3 times, respectively (Figure 4). On average, bumblebees from the control group were in flight for 9 min 28 s. After the consumption of syrup with difenoconazole and penconazole (see Materials and methods), the time spent by insects in flight decreased to 6 min 36 s and 7 min 17 s, respectively.
Peroxide 1–4, 6 (0.3 mg or 3.0 mg) was added to 500 µL of DMSO, and the resulting solution was diluted with 60% inverted sugar syrup to 10 mL. After that, 30 mg/L or 300 mg/L solution of peroxide in inverted sugar syrup containing DMSO (5% vol.) was obtained. A solution of DMSO (500 µL) in 60% inverted sugar syrup was used as the control solution. […]

Data set [5] shares this test system. Description: Ability of bumblebees to fly. It counts as in vivo. The settings on record: for Ability of bumblebees to fly in the contact action test: peroxides 30 mg/L in water with DMSO (5% vol.); for Decrease of the ability of bumblebees to fly after consumption of sugar syrup: feeding, versus control group.
Data set [6] shares this test system. Description: Toxic effect on bumblebees (contact action). The settings on record: concentration not given.

Turning to `COc1ccc(C(=O)/C=C/c2ccc(O)cc2)c(O)c1CC=C(C)C` [4-hydroxyderricin], in data set [1], the “MIC against A. apis” value is 6.25 µg/mL (≈ 18.5 µM).
As for `C=CCC1(C(=O)OCC)CCC2(C)OOC1(C)O2` (centres unmarked) [Compound 1, Ethyl-2-allyl-1,5-dimethyl-6,7,8-trioxabicyclo[3.2.1]octane-2-carboxylate], in data set [2], the inhibition at 30 µg/mL is 94% and the EC50 worked out at 4 ± 0.2 mg/L (≈ 15.6 µM).
As to `CC12OOC(C)(OO1)C2C12CC3CC(CC(C3)C1)C2` (centres unmarked) [Compound 6, 7-(Adamantan-1-yl)-1,4-dimethyl-2,3,5,6-tetraoxabicyclo[2.2.1]heptane], the melting point fell in the range of 130 to 131 °C. In data set [2], the inhibition at 30 µg/mL was determined as 94% and the EC50 was 1.6 ± 0.1 mg/L (≈ 6.01 µM).
For the compound `COc1ccc(C23OOC4(C)OC(C)(CCC42)O3)cc1` (centres unmarked) [Compound 7, 3-(4-Methoxyphenyl)-6,7a-dimethyltetrahydro-3H,4H-3,6-epoxy[1,2]dioxolo[3,4-b]pyran], the melting point fell in the range of 89 to 90 °C. Further, the inhibition at 30 µg/mL in data set [2] was 53%.
In turn, `C=CCC12CCC3(C)OC1(C)OOC2(C)O3` [Compound 8, 3a-Allyl-3,6,7a-trimethyltetrahydro-3H,4H-3,6-epoxy[1,2]-dioxolo[3,4-b]pyran] displayed a melting point of 43 to 44 °C. Also, the inhibition at 30 µg/mL in data set [2] came to 25%.
Consider `CO/N=C(/C(=O)OC)c1ccccc1COc1ccccc1C` [Kresoxim-methyl 10, Kresoxim-methyl], for which, in data set [2], the “Mycelium Growth Inhibition (I), %” value amounted to 88%; the inhibition at 30 µg/mL was less than 100%; the EC50 is less than 1 mg/L. Further, the “Mycelium Growth Inhibition (I), %” value in data set [2] (listed as Kresoxim-methyl) is reported as “did not completely inhibit”.
On to `CCCCCC(=O)O[C@H]1C(=O)c2c(O)cc(O)cc2O[C@@H]1c1ccccc1` [Pinobanksin-3-hexanoate], for which, in data set [3], the IC50 is 23 ± 2 µM.
In the case of `CC(C)(C)C(=O)C(Oc1ccc(Cl)cc1)n1cncn1` (centres unmarked) [Triadimefon 9, Triadimefon], in data set [2], the “Mycelium Growth Inhibition (I), %” value is given as 91%; the inhibition at 30 µg/mL was less than 100%; the EC50 was 7.1 ± 0.8 mg/L (≈ 24.2 µM).
`CC1COC(Cn2cncn2)(c2ccc(Oc3ccc(Cl)cc3)cc2Cl)O1` (centres unmarked) [difenoconazole]: the “Bumblebee mortality after consumption of syrup with commercial fungicide” value in data set [4] is given as “had not increased”. Also, in data set [5], the “Ability of bumblebees to fly in the contact action test” value was “did not affect the ability to fly” and the “Decrease of the ability of bumblebees to fly after consumption of sugar syrup” value is 1.4 times. The “Bumblebee mortality in contact with commercial fungicide” value in data set [6] was “had not increased”.
Consider `CCCC(Cn1cncn1)c1ccc(Cl)cc1Cl` (centres unmarked) [penconazole], for which the “Bumblebee mortality after consumption of syrup with commercial fungicide” value in data set [4] was “had not increased”. In data set [5], the “Ability of bumblebees to fly in the contact action test” value is on record as “did not affect the ability to fly” and the “Decrease of the ability of bumblebees to fly after consumption of sugar syrup” value is 1.3 times. Further, in data set [6], the “Bumblebee mortality in contact with commercial fungicide” value is “had not increased”.
